Patent US11266170B2, “Sweetener and flavor compositions, methods of making and methods of use thereof” (EPC Natural Products Co., Ltd., priority 2018, dated 2022)
Residues, ends and D or L forms follow the SMILES beside them.

How the values were obtained:
[1] = cited from earlier work; for Sweetness by weight / Sweetness by food energy: compared to sucrose; for times sweeter than sucrose: relative to sucrose / sugar, the sweetness depends on the tested concentration
[2] = Kinetics of reaction of Phe with Reb-A, Gluc, Xyl, Suc in dependence of pH-conditions, HPLC/MS (Example 55); format: physicochemical
Method: Quantitative evaluation was performed using external standardization.
Kinetics of Reaction in dependence of pH-conditions

3 persons = assay: Sensory analysis of odor/smell, color and taste of reacted samples (Examples 55-62); format: in vivo
Method: The reaction partners were dissolved in water and then warmed glycerin (60° C.) was added. […]
The taste test was performed as in Example 38.
All samples were assessed at 22° C. after the Maillard reaction was stopped by placing the sealed vials in an ice bath. After 20 minutes in the ice bath the sealed vials were put in a water bath set to 22° C.
The odor/smell was assessed independently by 3 persons; the final description was agreed after discussion. […] The taste was assessed independently by 3 persons either in the original samples or after appropriate dilution to achieve relevant concentrations of sugars and steviol-glycosides (i.e. 5-9% SE); the final description was agreed after discussion.

[3] = negative controls (no carbohydrate source), 10 ml glycerin/water 9:1, 100 °C, 40 minutes
[4] = reaction of Phe and Reb-A, pH = 5.5, Reb-B from degraded Reb-A, MRIs from degraded Phe
[5] = reaction of Phe and Reb-A, pH = 7.0, Reb-B from degraded Reb-A, MRIs from degraded Phe
[6] = reaction of Phe and Reb-A, pH = 8.5, Reb-B from degraded Reb-A, MRIs from degraded Phe
[7] = Example 57, after reaction, 10 ml KH2PO4, pH 7.8, 2.5 h, 120 °C
[8] = Example 57, before reaction, 10 ml KH2PO4, pH 7.8

## Monellin
[1]
  Sweetness by weight: 800-2,000

## Polydextrose
[1]
  Sweetness by weight: 0.1

## O=C(O)[C@H](Cc1ccccc1)NCC(=O)[C@@H](O)[C@H](O)[C@H](O)CO [MRI (Phe-Glu)]
[2]; reaction of Phe and Suc, pH = 5.5, from degraded Phe
  % formation: <0.10%
[2]; reaction of Phe and Suc, pH = 7.0, from degraded Phe
  % formation: 0.54%
[2]; reaction of Phe and Suc, pH = 8.5, from degraded Phe
  % formation: 0.84%

## N[C@@H](Cc1c[nH]c2ccccc12)C(=O)O [20.42 mg Try]
3 persons; [3]
  Smell: Unpleasant (fecal)
  Taste: Slightly sweet

## COC(=O)[C@H](Cc1ccccc1)NC(=O)[C@@H](N)CC(=O)O [Aspartame] (H-Asp-Phe-OMe)
[1]
  times sweeter than sucrose: 160-200 times

## C[C@H](CC[C@@H](O[C@@H]1O[C@H](CO[C@@H]2O[C@H](CO)[C@@H](O)[C@H](O)[C@H]2O)[C@@H](O)[C@H](O)[C@H]1O[C@@H]1O[C@H](CO)[C@@H](O)[C@H](O)[C@H]1O)C(C)(C)O)[C@H]1CC[C@@]2(C)[C@@H]3CC=C4[C@@H](CC[C@H](O[C@@H]5O[C@H](CO[C@@H]6O[C@H](CO)[C@@H](O)[C@H](O)[C@H]6O)[C@@H](O)[C@H](O)[C@H]5O)C4(C)C)[C@]3(C)[C@H](O)C[C@]12C [mogroside V]
[1]
  times sweeter than sucrose: 256-344 times

## CC[C@H](C)[C@H](N)C(=O)O [13.11 mg Ile]
3 persons; [3]
  Smell: Coffee
  Taste: Slightly sweet

## N[C@@H](CS)C(=O)O [12.1 mg Cys]
3 persons; [3]
  Smell: Unpleasant (sulfur)
  Taste: Slightly sweet

## COc1ccc(CCC(=O)c2c(O)cc(O[C@@H]3O[C@H](CO)[C@@H](O)[C@H](O)[C@H]3O[C@@H]3O[C@@H](C)[C@H](O)[C@@H](O)[C@H]3O)cc2O)cc1O [NHDC, Neohesperidin dihydrochalcone]
[1]; at threshold concentrations
  times sweeter than sugar at threshold concentrations: 1500-1800 times
[1]; weight-for-weight
  times sweeter than sugar weight-for-weight: about 340 times

## Isomalt
[1]
  Sweetness by food energy: 0.9-1.3
  Sweetness by weight: 0.45-0.65

## O=C(O)[C@@H]1CCCN1 [11.5 mg Pro]
3 persons; [3]
  Taste: Slightly sweet

## OC[C@H]1O[C@H](O[C@]2(CCl)O[C@H](CCl)[C@@H](O)[C@@H]2O)[C@H](O)[C@@H](O)[C@H]1Cl [sucralose]
[1]
  times sweeter than sucrose: about 600 times

## Mabinlin
[1]
  Sweetness by weight: 100

## O=S(=O)([O-])NC1CCCCC1.[Na+] [sodium cyclamate]
[1]
  times sweeter than sucrose: about 30 times

## Curculin
[1]
  Sweetness by weight: 430-2070

## OCC(O)CO [Glycerol]
[1]
  Sweetness by food energy: 0.55
  Sweetness by weight: 0.6

## C[C@@H]1O[C@@H](O[C@H]2O[C@@H]([C@@H](C)C3CC[C@@H]4[C@H]5CC(=O)[C@@H]6C[C@H](O[C@@H]7O[C@H](CO)[C@@H](O)[C@H](O)[C@H]7O[C@@H]7O[C@@H](C)[C@H](O)[C@@H](O)[C@H]7O)CC[C@]6(C)[C@@H]5CC[C@]34C)CC[C@@H]2C)[C@H](O)[C@H](O)[C@H]1O (stereo partly drawn) [Osladin]
[1]
  Sweetness by weight: 500

## OC[C@@H](O)[C@@H](O)CO [Erythritol]
[1]
  Sweetness by food energy: 14
  Sweetness by weight: 0.6-0.7

## C[C@H](N)C(=O)O [8.91 mg Ala]
3 persons; [3]
  Smell: Neutral, slightly Agar
  Taste: Slightly sweet

## N[C@@H](Cc1ccc(O)cc1)C(=O)O [18.1 mg Tyr]
3 persons; [3]
  Smell: neutral
  Taste: Slightly sweet

## OC[C@@H](O)[C@@H](O[C@@H]1O[C@H](CO)[C@H](O)[C@H](O)[C@H]1O)[C@H](O)[C@@H](O)CO [Lactitol]
[1]
  Sweetness by food energy: 0.8
  Sweetness by weight: 0.4

## O=C(CO)[C@@H](O)[C@@H](O)[C@H](O)CO [Tagatose]
[1]
  Sweetness by food energy: 2.4
  Sweetness by weight: 0.92

## O=C(CO)[C@H](O)[C@H](O)[C@H](O)CO [Psicose]
[1]
  Sweetness by weight: 0.7

## NCCCC[C@H](N)C(=O)O [14.7 mg Lys]
3 persons; [3]
  Smell: Popcorn
  Taste: Slightly sweet

## CSCC[C@H](N)C(=O)O [14.9 mg Met]
3 persons; [3]
  Smell: Sulfuric
  Taste: Slightly sweet

## rebaudioside B [RB]
[2]; [4]
  % formation: 23.1%
[2]; [5]
  % formation: 22.7%
[2]; [6]
  % formation: 19.1%

## OC[C@H]1O[C@@](CO)(O[C@H]2O[C@H](CO)[C@@H](O)[C@H](O)[C@H]2O)[C@@H](O)[C@@H]1O [Suc]
[2]; reaction of Phe and Suc, pH = 5.5
  % degradation: 3.67%
[2]; reaction of Phe and Suc, pH = 7.0
  % degradation: 5.69%
[2]; reaction of Phe and Suc, pH = 8.5
  % degradation: 9.81%

## OC[C@@H](O)[C@@H](O)[C@H](O)[C@H](O)CO [Mannitol]
[1]
  Sweetness by food energy: 1.2
  Sweetness by weight: 0.5
  times sweeter than sucrose: 0.55-0.65 times

## C[C@@H](O)[C@H](N)C(=O)O [11.91 mg Thr]
3 persons; [3]
  Smell: Vanilla, butter
  Taste: Slightly sweet

## N[C@@H](CO)C(=O)O [10.5 mg Ser]
3 persons; [3]
  Smell: Lotus flower
  Taste: Slightly sweet

## C[C@H](CC[C@@H](O[C@@H]1O[C@H](CO)[C@@H](O)[C@H](O)[C@H]1O[C@@H]1O[C@H](CO)[C@@H](O)[C@H](O)[C@H]1O)C(C)(C)O)[C@H]1CC[C@@]2(C)[C@H]3CC=C4[C@@H](CC[C@H](O[C@@H]5O[C@H](CO[C@@H]6O[C@H](CO)[C@@H](O)[C@H](O)[C@H]6O)[C@@H](O)[C@H](O)[C@H]5O)C4(C)C)[C@]3(C)[C@H](O)C[C@]12C [mogroside IV]
[1]
  times sweeter than sucrose: 126 times

## Inulin
[1]
  Sweetness by weight: 0.1

## CC1(C)[C@@H](O[C@H]2O[C@H](C(=O)O)[C@@H](O)[C@H](O)[C@H]2O[C@@H]2O[C@H](C(=O)O)[C@@H](O)[C@H](O)[C@H]2O)CC[C@]2(C)[C@H]3C(=O)C=C4[C@@H]5C[C@@](C)(C(=O)O)CC[C@]5(C)CC[C@@]4(C)[C@]3(C)CC[C@@H]12 [Glycyrrhizin]
[1]
  Sweetness by weight: 30-50

## OC[C@@H](O)[C@@H](O)[C@H](O)[C@@H](O)CO [Sorbitol]
[1]
  Sweetness by food energy: 0.9
  Sweetness by weight: 0.6

## O=C[C@H](O)[C@@H](O)[C@H](O)[C@H](O)C(=O)O [Glucuronic Acid]
3 persons; [7]
  Smell: burnt bread
  Taste: Bitter

## Pentadin
[1]
  Sweetness by weight: 500

## C=C1C[C@@]23CC[C@H]4[C@@](C)(CCC[C@@]4(C)C(=O)O[C@@H]4O[C@H](CO)[C@@H](O)[C@H](O)[C@H]4O)[C@@H]2CC[C@]1(O[C@@H]1O[C@H](CO)[C@@H](O)[C@H](O)[C@H]1O)C3 [Rubusoside]
[1]
  times sweeter than sucrose: 200 times

## OC[C@@H](O)[C@@H](O[C@H]1O[C@H](CO)[C@@H](O)[C@H](O)[C@H]1O)[C@H](O)[C@@H](O)CO [Maltitol]
[1]
  Sweetness by food energy: 1.7
  Sweetness by weight: 0.75-0.9

## O=C1O[C@@H]2[C@@H](O)[C@H](O)O[C@@H]2C1O (stereo partly drawn) [Glucuronolactone]
3 persons; [7]
  Smell: Burnt sugar
  Taste: Bitter

## Brazzein (QDKCKKVYENYPVSKCQLANQCNYDCKLDKHARSGECFYDEKRNLQCICDYCEY; UniProt P56552 1-54, looked up) [Protein]
[1]
  Sweetness by weight: 500-2000

## N[C@@H](C[C@@](O)(Cc1c[nH]c2ccccc12)C(=O)O)C(=O)O [Monatin]
[1]
  Sweetness by weight: 3,000

## C=C1CC23CC[C@H]4[C@@](C)(CCC[C@@]4(C)C(=O)OC4O[C@H](C(=O)N[C@H](Cc5ccccc5)C(=O)O)[C@@H](O)[C@H](O)[C@H]4O)[C@@H]2CC(O[C@@H]2O[C@H](CO)[C@@H](O)C(O[C@@H]4O[C@H](CO)[C@@H](O)[C@H](O)[C@H]4O)[C@H]2O[C@@H]2O[C@H](CO)[C@@H](O)[C@H](O)[C@H]2O)C1C3 (stereo partly drawn) [MRI (Phe-Reb-A)]
[2]; [4]
  % formation: 10.4%
[2]; [5]
  % formation: 11.3%
[2]; [6]
  % formation: 14.7%

## OC[C@H]1O[C@H](OC[C@H]2OC(O)(CO)[C@@H](O)[C@@H]2O)[C@H](O)[C@@H](O)[C@@H]1O (stereo partly drawn) [Isomaltulose]
[1]
  Sweetness by weight: 0.5

## N[C@@H](Cc1ccccc1)C(=O)O [16.5 mg Phe]
3 persons; [8]
  Smell: neutral
  Taste: No taste
3 persons; Example 58, after reaction, 10 ml KH2PO4, pH 7.8, 2.5 h, 120 °C
  Smell: Caramel, burnt
3 persons; Example 58, after reaction, after dilution 1:20
  Taste: Sweet
3 persons; Example 58, before reaction, 10 ml KH2PO4, pH 7.8
  Smell: Neutral
3 persons; Example 58, before reaction, after dilution 1:20
  Taste: No taste
3 persons; [3]
  Smell: Bloomy, caramel
  Taste: Slightly sweet

## OC[C@H]1OC(O)[C@H](O)[C@@H](O)[C@@H]1O (stereo partly drawn) [9 mg Glucose]
3 persons; [8]
  Smell: neutral
  Taste: Sweet

## Maltodextrin
[1]
  Sweetness by weight: 0.15

B1: Miraculin (protein, UniProt P13087 30-220, looked up)
Miraculin: DSAPNPVLDIDGEKLRTGTNYYIVPVLRDHGGGLTVSATTPNGTFVCPPRVVQTRKEVDHDRPLAFFPENPKEDVVRVSTDLNINFSAFMPCRWTSSTVWRLDKYDESTGQYFVTIGGVKGNPGPETISSWFKIEEFCGSGFYKLVFCPTVCGSCKVKCGDVGIYIDQKGRRRLALSDKPFAFEFNKTVYF
[1]; result in words
  Notes (taste): A protein that does not taste sweet by itself
